Data: PubChem BioAssay AID1963976 (Molecular Pharmacology Branch, DTP, NCI, 2024)

System: 435261-313-R-J1-PDC tumor spheroid viability
Test: Anticancer human tumor 435261-313-R-J1-PDC patient-derived colon adenocarcinoma cell line growth inhibition [PI3K]
Settings: spheroids with HUVEC and MSC; for IC50: curve of first compound; for viability, T/C: stronger effect = lower value
Summary of the method: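 Agents were dosed from a top concentration near clinical Cmax (otherwise 10 microM) in half-log decrements, alone or combined with PI3K inhibitors. The spheroids contain tumor cells plus endothelial (HUVEC) and MSC stroma; viability is measured.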

[1] = second compound 0.00316 µM, first compound 0.0316 µM
[2] = second compound 0.00316 µM, first compound 0.1 µM
[3] = second compound 0.00316 µM, first compound 0.316 µM
[4] = second compound 0.00316 µM, first compound 1 µM
[5] = second compound 0.00316 µM, first compound 3.16 µM
[6] = second compound 0.00316 µM, first compound 10 µM
[7] = second compound 0.01 µM, first compound 0.0316 µM
[8] = second compound 0.01 µM, first compound 0.1 µM
[9] = second compound 0.01 µM, first compound 0.316 µM
[10] = second compound 0.01 µM, first compound 1 µM
[11] = second compound 0.01 µM, first compound 3.16 µM
[12] = second compound 0.01 µM, first compound 10 µM
[13] = second compound 0.0316 µM, first compound 0.0316 µM
[14] = second compound 0.0316 µM, first compound 0.1 µM
[15] = second compound 0.0316 µM, first compound 0.316 µM
[16] = second compound 0.0316 µM, first compound 1 µM
[17] = second compound 0.0316 µM, first compound 3.16 µM
[18] = second compound 0.0316 µM, first compound 10 µM
[19] = second compound 0.1 µM, first compound 0.0316 µM
[20] = second compound 0.1 µM, first compound 0.1 µM
[21] = second compound 0.1 µM, first compound 0.316 µM
[22] = second compound 0.1 µM, first compound 1 µM
[23] = second compound 0.1 µM, first compound 3.16 µM
[24] = second compound 0.1 µM, first compound 10 µM
[25] = second compound 0.316 µM, first compound 0.0316 µM
[26] = second compound 0.316 µM, first compound 0.1 µM
[27] = second compound 0.316 µM, first compound 0.316 µM
[28] = second compound 0.316 µM, first compound 1 µM
[29] = second compound 0.316 µM, first compound 3.16 µM
[30] = second compound 0.316 µM, first compound 10 µM
[31] = second compound 1 µM, first compound 0.0316 µM
[32] = second compound 1 µM, first compound 0.1 µM
[33] = second compound 1 µM, first compound 0.316 µM
[34] = second compound 1 µM, first compound 1 µM
[35] = second compound 1 µM, first compound 3.16 µM
[36] = second compound 1 µM, first compound 10 µM
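Note: spheroids exposed to compounds for 7 days.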

C#Cc1c(F)ccc2cc(O)cc(-c3ncc4c(N5CC6CCC(C5)N6)nc(OCC56CCCN5CC(F)C6)nc4c3F)c12 (stereo unspecified) + CC(Nc1ccc2c(c1)OCCn1cc(N3C(=O)OCC3C(F)F)nc1-2)C(N)=O
IC50 (second compound 0.00316 µM): 3730 nM | IC50 (second compound 0.01 µM): 2040 nM | IC50 (second compound 0.0316 µM): 1920 nM | IC50 (second compound 0.1 µM): 85.9 nM | IC50 (second compound 0.316 µM): < 31.6 nM | IC50 (second compound 1 µM): < 31.6 nM | viability, T/C [1]: 73.9% | viability, T/C [2]: 91.2% | viability, T/C [3]: 85.6% | viability, T/C [4]: 98.2% | viability, T/C [5]: 54.1% | viability, T/C [6]: 25.7% | viability, T/C [7]: 74.4% | viability, T/C [8]: 93.9% | viability, T/C [9]: 90.7% | viability, T/C [10]: 65.8% | viability, T/C [11]: 41.1% | viability, T/C [12]: 28.8% | viability, T/C [13]: 54.5% | viability, T/C [14]: 65.7% | viability, T/C [15]: 66.2% | viability, T/C [16]: 76.5% | viability, T/C [17]: 38.1% | viability, T/C [18]: 13.8% | viability, T/C [19]: 43.9% | viability, T/C [20]: 57% | viability, T/C [21]: 47.4% | viability, T/C [22]: 33.2% | viability, T/C [23]: 22.6% | viability, T/C [24]: 12.3% | viability, T/C [25]: 21.7% | viability, T/C [26]: 21.6% | viability, T/C [27]: 26.5% | viability, T/C [28]: 17.5% | viability, T/C [29]: 15.1% | viability, T/C [30]: 7.18% | viability, T/C [31]: 18.9% | viability, T/C [32]: 14.5% | viability, T/C [33]: 13.1% | viability, T/C [34]: 12% | viability, T/C [35]: 7.99% | viability, T/C [36]: 3.34%

CC(Cn1ccc(-c2ccc(C#N)c(Cl)c2)n1)NC(=O)c1cc(C(C)O)[nH]n1 (stereo unspecified) + CC(Nc1ccc2c(c1)OCCn1cc(N3C(=O)OCC3C(F)F)nc1-2)C(N)=O
IC50 (second compound 0.00316 µM): > 10000 nM | IC50 (second compound 0.01 µM): > 10000 nM | IC50 (second compound 0.0316 µM): > 10000 nM | IC50 (second compound 0.1 µM): < 31.6 nM | IC50 (second compound 0.316 µM): < 31.6 nM | IC50 (second compound 1 µM): < 31.6 nM | viability, T/C [1]: 75.6% | viability, T/C [2]: 79.1% | viability, T/C [3]: 93.8% | viability, T/C [4]: 106% | viability, T/C [5]: 94.3% | viability, T/C [6]: 106% | viability, T/C [7]: 53.1% | viability, T/C [8]: 90.6% | viability, T/C [9]: 105% | viability, T/C [10]: 106% | viability, T/C [11]: 82.4% | viability, T/C [12]: 95.1% | viability, T/C [13]: 74.5% | viability, T/C [14]: 78.5% | viability, T/C [15]: 93% | viability, T/C [16]: 77.4% | viability, T/C [17]: 95.9% | viability, T/C [18]: 86.2% | viability, T/C [19]: 41.5% | viability, T/C [20]: 54.3% | viability, T/C [21]: 40.1% | viability, T/C [22]: 44% | viability, T/C [23]: 46.2% | viability, T/C [24]: 53.8% | viability, T/C [25]: 28.6% | viability, T/C [26]: 24.6% | viability, T/C [27]: 20.2% | viability, T/C [28]: 21.7% | viability, T/C [29]: 25.9% | viability, T/C [30]: 27.5% | viability, T/C [31]: 17.1% | viability, T/C [32]: 17% | viability, T/C [33]: 18.3% | viability, T/C [34]: 19.2% | viability, T/C [35]: 16.9% | viability, T/C [36]: 20.5%

CC1(C)CCC(Nc2ncc(C(F)(F)F)c(-c3c[nH]c4c(P(C)(C)=O)c(C#N)ccc34)n2)CN1 (stereo unspecified) + CC(Nc1ccc2c(c1)OCCn1cc(N3C(=O)OCC3C(F)F)nc1-2)C(N)=O
IC50 (second compound 0.00316 µM): 1200 nM | IC50 (second compound 0.01 µM): 1040 nM | IC50 (second compound 0.0316 µM): < 31.6 nM | IC50 (second compound 0.1 µM): < 31.6 nM | IC50 (second compound 0.316 µM): < 31.6 nM | IC50 (second compound 1 µM): < 31.6 nM | viability, T/C [1]: 46.7% | viability, T/C [2]: 58.8% | viability, T/C [3]: 43.8% | viability, T/C [4]: 58.8% | viability, T/C [5]: 39.4% | viability, T/C [6]: 0.93% | viability, T/C [7]: 52% | viability, T/C [8]: 53.4% | viability, T/C [9]: 48% | viability, T/C [10]: 51.3% | viability, T/C [11]: 38.6% | viability, T/C [12]: 0.98% | viability, T/C [13]: 44.4% | viability, T/C [14]: 47.9% | viability, T/C [15]: 38.8% | viability, T/C [16]: 40.8% | viability, T/C [17]: 33.4% | viability, T/C [18]: 0.99% | viability, T/C [19]: 30% | viability, T/C [20]: 31.6% | viability, T/C [21]: 27.2% | viability, T/C [22]: 30.2% | viability, T/C [23]: 24.5% | viability, T/C [24]: 0.45% | viability, T/C [25]: 24.2% | viability, T/C [26]: 22.8% | viability, T/C [27]: 20.1% | viability, T/C [28]: 20.2% | viability, T/C [29]: 15% | viability, T/C [30]: 0.63% | viability, T/C [31]: 20.9% | viability, T/C [32]: 15% | viability, T/C [33]: 17% | viability, T/C [34]: 18.8% | viability, T/C [35]: 10.4% | viability, T/C [36]: 0.26%
